From patent US20250073234A1, “COMBINATION THERAPIES INCLUDING PARP1 INHIBITORS” (Cornell University, priority 2022, published 2025)
Read-outs that look alike come from different tables or passages of the source.

Columns and labels:
[1] = system: TRAMP+ prostate tumors; assay: TRAMP+ prostate tumor model (IHC, scRNAseq); assay type: in vivo, mouse
Description: For mouse xenografts using PC3 PCa cells and sgC or sgAP-1 WPMY-1 stromal cells. 7 weeks old NSG mice were surgical castrated and let androgen levels drop for 10 days. Cells were trypsinized washed two times in PBS and resuspend in DMEN. 1×10^6 PC3 and 1×10^6 sgC or sgAP1-A WPMY-1 for each mouse were resuspended in 100 μl DMEM: Matrigel (1:1) and injected subcutaneously into both flanks of immunocompromised NSG mice (PC3+sgC WPMY-1 n=4; PC3+sgAP-1 WPMY-1 n=4). Tumors were allowed to grow for 1 month. Mice were euthanized and tumors were collected and analyzed histologically. For Olaparib treatment in mouse xenografts. PC3 PCa cells and WPMY-1 stromal cells were trypsinized washed two times in PBS and resuspend in DMEN. 1×10^6 PC3 and 1×10^6 WPMY-1 for each mouse were resuspended in 100 μl DMEM: Matrigel (1:1) and injected subcutaneously into both flanks of immunocompromised NSG mice. Tumors were allowed to grow for 14 days, and mouse were randomly divided to receive vehicle, n=10, Olaparib (40 mg/kg, 2 days each week, i.p.), n=10 or Olaparib (40 mg/kg, 2 days each week, i.p.)+_PEGPH20 (0.0375 mg/Kg, 2 days each week, retroorbital injection) n=10. Tumors were measured twice a week. Mice were euthanized 14 days after the initiation of the treatment and tumors were collected and analyzed histologically. For Olaparib treatment in mice, 13 weeks-old male TRAMP^+, n=18, were randomly distributed to receive vehicle, n=9, or Olaparib (40 mg/kg/, 5 days each week, i.p.), n=9. Mice were euthanized 1 month after the initiation of the treatment. Prostate and other organs were collected and analyzed histologically.
Tissues from indicated mice were isolated, fixed in zinc buffered formalin overnight at 4° C., dehydrated, and embedded in paraffin. Sections (5 μm) were stained with hematoxylin and eosin (H&E). For immunohistochemistry, sections were deparaffinized, rehydrated, and then treated for antigen retrieval. After blocking in Protein Block Serum-Free solutions (DAKO), tissues were incubated with primary antibody overnight at 4° C. followed by incubation with biotinylated secondary antibody. Endogenous peroxidase was quenched in 3% H2O2 in water for 10 minutes at room temperature. Antibodies were visualized with avidin-biotin complex (Vectastain Elite; Vector Laboratories) using diaminobenzidine as the chromogen. Stained sections were analyzed with a Zeiss light microscope supplemented with Zen 3.3 Bule edition software.
Prostate lobes dissected and washed with cold PBS. Prostate tissue was gently minced with scissors and digested in Advance DMEN/F12 media (Gibco, Thermo Fisher) with 5 mg/ml Collagenase type II (Sigma) supplemented with Y27632 (Tocris) for 1 hour at 37° C. Cells were passed through a 70 μm strainer and centrifuge 5 minutes, 1000 rpm at 4° C. After that, cells were incubated with TrypLE Express (Gibco, Thermo Fisher) supplemented with Y27632 for 20 minutes in agitation at 37° C. to achieve a single cell suspension. TrypLE Express was quenched and washed with Advance DMEN/F12 media and then cells were centrifuged for 5 minutes, 1000 rpm at 4° C. Dead cells were removed by Annexin V ([…] technologies). scRNA-seq libraries were generated using the Chromium Single Cell 30 Reagent Kit v2 (10× Genomics). Cells were loaded onto the 10×Chromium Single Cell Platform (10× Genomics) at a concentration of 2,000 cells per μl (Single Cell 3′ library and Gel Bead Kit v.2) as described in the manufacturer's protocol (10× User Guide, Revision B). On average, approximately 8,000 cells were loaded. Generation of gel beads in emulsion (GEMs), barcoding, GEM-RT clean-up, complementary DNA amplification and library construction were all performed as per the manufacturer's protocol. Individual sample quality was checked using a Bioanalyzer Tapestation (Agilent). Qubit was used for library quantification before pooling. The final library pool was sequenced on an Illumina NovaSeq6000 instrument using a S1 flow cell. […]

[2] = system: PC3^GFP cells; assay: Survival of GFP-labeled PC3 cells alone or co-cultured with WPMY-1 cells; assay type: cell-based, human; conditions: Olaparib 5 μM, 10 days, basal and ADT
Description: Co-culture assays were performed as described previously (Valencia et al., 2014). Briefly, stromal cells were seeded in TC-treated 6-well plates and allowed to attach for 6 hours before PCa cells were seeded on top of Milicell Cell Culture Inserts (Millipore). Inserts were then placed in the pre-seeded 6-well plate. For co-culture experiments of PC3-GFP label with WPMY-1 cells, 500 PC3 and 1000 WPMY-1 were seeded in a 96 well plate in DMEN containing 10% FBS (basal conditions) or 10% charcoal stripped FBS (ADT conditions) and vehicle (DMSO) or Olaparib 5 μM for 10 days. Media and treatments were refresh every 48 hours. Pictures were taken using EVOS M5000 Imaging System and GFP positive were measured using Fiji (Schindelin et al., 2012).

[3] = system: prostate cancer bone metastasis; assay: Paired biopsies of bone metastasis from a mCRPC patient, IHC for HA; assay type: in vivo, human

What does the source list for O=C(c1cc(Cc2n[nH]c(=O)c3ccccc23)ccc1F)N1CCN(C(=O)C2CC2)CC1 [Olaparib]?
desmoplastic response in the prostate (IHC HA, aSMA) ([1]; Olaparib 40 mg/Kg, 5 days a week, 4 weeks): induced a strong desmoplastic response in the prostate; AR, EMT and TGFβ signaling signatures in tumor epithelium ([1]; Olaparib 4 weeks): increased AR, EMT and TGFβ signaling; Has1, Spink1 and Tgfb2 transcripts in fibroblast population (scRNAseq) ([1]; Olaparib 4 weeks): among the most upregulated transcripts; neuroendocrine cluster 2 (NE1) of tumor epithelium (scRNAseq) ([1]; Olaparib 4 weeks): completely abolished the neuroendocrine cluster 2; pSMAD2 staining in prostates (IHC) ([1]; Olaparib 4 weeks): increased pSMAD2 staining; stromal and immune cell populations (scRNAseq) ([1]; Olaparib 4 weeks): expansion of the stromal and immune populations; SPINK1 levels in tumor stroma (IHC) ([1]; in vivo): highly upregulated; sensitivity of PC3^GFP cells to Olaparib, co-culture vs monoculture [2]: more resistant to Olaparib; HA deposition in bone metastasis, pre- vs post-treatment [3]: increased HA deposition; HA deposition in bone metastasis, pre- vs post-treatment ([3]; listed as Ola): robust increase in HA deposition
